The source made the active and inactive calls. No cut-off for these calls is given here. Bridge positions count the residues as written; N and C are the ends. Square brackets hold non-standard residues; d marks the D form. Peptide text beside a SMILES is read from it. S5 = C=CCCC[C@](C)(N)C(=O)O
Legend:
GTPase KRas = GTPase KRas (Homo sapiens, UniProt P01116, G12C); assay: Binding affinity to biotinylated N-terminal His6-tagged recombinant KRAS G12C mutant (unknown origin) by BLI method
[1] = tested on: GTPase KRas (Homo sapiens), P01116 [G12C]; assay: Binding affinity to biotinylated N-terminal His6-tagged recombinant KRAS G12C mutant (unknown origin) assessed as dissociation constant by BLI method
NCI-H358 [2] = assay: Induction of cell cycle arrest in human NCI-H358 cells harboring KRAS G12C mutant assessed as reduction in cyclin B1 protein expression at 40 uM incubated for 24 hrs by Western blot analysis; format: functional, cell-based
NCI-H358 [3] = assay: Induction of apoptosis in human NCI-H358 cells harboring KRAS G12C mutant assessed as late apoptotic cells at 2.5 uM incubated for 24 hrs by Annexin V-FITC/PI staining based flow cytometric analysis (reference value: 28.2%); format: functional
NCI-H358 [4] = assay: Induction of apoptosis in human NCI-H358 cells harboring KRAS G12C mutant assessed as early apoptotic cells at 10 uM incubated for 24 hrs by Annexin V-FITC/PI staining based flow cytometric analysis (reference value: 4.34%); format: functional
NCI-H358 [5] = assay: Induction of apoptosis in human NCI-H358 cells harboring KRAS G12C mutant assessed as early apoptotic cells at 20 uM incubated for 24 hrs by Annexin V-FITC/PI staining based flow cytometric analysis (reference value: 4.34%); format: functional
NCI-H358 [6] = assay: Induction of apoptosis in human NCI-H358 cells harboring KRAS G12C mutant assessed as late apoptotic cells at 20 uM incubated for 24 hrs by Annexin V-FITC/PI staining based flow cytometric analysis (reference value: 28.2%); format: functional
A549 [7] = assay: Induction of apoptosis in human A549 cells harboring KRAS G12S mutant assessed as viable cells at 2.5 uM incubated for 24 hrs by Annexin V-FITC/PI staining based flow cytometric analysis (reference value: 68.3%); format: functional; settings: A549, 24 h, read-out: Activity
A549 [8] = assay: Induction of apoptosis in human A549 cells harboring KRAS G12S mutant assessed as early apoptotic cells at 2.5 uM incubated for 24 hrs by Annexin V-FITC/PI staining based flow cytometric analysis (reference value: 6.09%); format: functional
A549 [9] = assay: Induction of apoptosis in human A549 cells harboring KRAS G12S mutant assessed as early apoptotic cells at 10 uM incubated for 24 hrs by Annexin V-FITC/PI staining based flow cytometric analysis (reference value: 6.09%); format: functional
A549 [10] = assay: Induction of apoptosis in human A549 cells harboring KRAS G12S mutant assessed as late apoptotic cells at 20 uM incubated for 24 hrs by Annexin V-FITC/PI staining based flow cytometric analysis (reference value: 25.4%); format: functional
A549 [11] = assay: Induction of apoptosis in human A549 cells harboring KRAS G12S mutant assessed as necrotic cells at 20 uM incubated for 24 hrs by Annexin V-FITC/PI staining based flow cytometric analysis (reference value: 0.16%); format: functional
NCI-H358 [12] = assay: Induction of cell cycle arrest in human NCI-H358 cells harboring KRAS G12C mutant assessed as accumulation at G2/M phase incubated for 24 hrs by PI staining based flow cytometric analysis; format: functional

Sequence of GTPase KRas (P01116 whole entry G12C): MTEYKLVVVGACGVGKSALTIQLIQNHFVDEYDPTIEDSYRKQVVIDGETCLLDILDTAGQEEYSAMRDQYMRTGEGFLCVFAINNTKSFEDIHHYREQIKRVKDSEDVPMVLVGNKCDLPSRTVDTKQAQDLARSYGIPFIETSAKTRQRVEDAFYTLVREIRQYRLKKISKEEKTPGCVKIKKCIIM
Sequence of GTPase KRas (Homo sapiens), P01116 [G12C] (P01116 whole entry G12C): as above

With CC[C@H](C)[C@H](NC(=O)CNC(=O)[C@H](Cc1ccccc1)NC(=O)[C@H](Cc1ccccc1)NC(=O)[C@H](CCCNC(=N)N)NC(=O)[C@H](CCCNC(=N)N)NC(C)=O)C(=O)N[C@@]1(C)CCC/C=C\CCC[C@@](C)(C(=O)N[C@@H](CC(C)C)C(=O)N[C@@H](CCCCN)C(=O)N[C@H](C(=O)N[C@@H](CCC(=O)O)C(=O)N[C@@H](CCC(=O)O)C(=O)NCC(=O)N[C@@H](CC(N)=O)C(=O)O)[C@@H](C)O)NC(=O)[C@H](CC(N)=O)NC(=O)[C@H](CC(=O)O)NC(=O)[C@H]([C@@H](C)O)NC(=O)[C@H](CC(C)C)NC(=O)[C@H](CC(=O)O)NC1=O (Ac-RRFFGI[S5]DLTDN[S5]LKTEEGN-OH; staple (Z) 7-13) the Kd (GTPase KRas) was 870 nM, the Kdiss [1] was 6.37 ×10⁻³ /s and the Activity (NCI-H358 [2]) was “Active”. For the same compound, the Activity (NCI-H358 [3]) was 33%, the Activity (NCI-H358 [4]) was 6.37% and the Activity (NCI-H358 [5]) was 6.49%. It also gave an Activity (NCI-H358 [6]) of 46.6%, a viability at 2.5 µM (A549 [7]) of 60.4% and an Activity (A549 [8]) of 2.65%. For the same compound, the Activity (A549 [9]) was 1.79%, the Activity (A549 [10]) was 30.7% and the Activity (A549 [11]) was 0.33%. The Activity (NCI-H358 [12]) was “Dose-dependent effect”.

— ChEMBL document CHEMBL4373743, “Selective apoptosis-inducing activity of synthetic hydrocarbon-stapled SOS1 helix with d-amino acids in H358 cancer cells expressing KRASG12C” (Eur J Med Chem, 2020)
